The text below walks through data of patent publication US7553856B2, “Crystalline form of omeprazole” (Lek Pharmaceuticals d.d., priority 2001, dated 2009).

Data set [1] is described as follows: Stability testing of omeprazole samples under stress/accelerated aging, evaluated by absorbance (Ph Eur). The data set is classed as physicochemical. The note with it: omeprazole form C obtained by the disclosed process; no numerical data printed.
Protocol: The stability of omeprazole samples was determined by a standard procedure for testing the substances in pharmaceutical industry (CPMP/ICH/2736/99). […] Determination of absorbance, measured according to Ph Eur method (PhEur 3 Suppl 2000), is used as the criterion for evaluation of the sample quality during stability testing.
The conditions of data set [2]: compared to previously-known omeprazole form B; cited from earlier work.

Structures are written as SMILES.

With `COc1ccc2[nH]c([S+]([O-])Cc3ncc(C)c(OC)c3C)nc2c1` (stereo not shown) [omeprazole form C, 5-methoxy-2-[[(4-methoxy-3,5-dimethyl-2-pyridinyl)methyl]sulfinyl]-1H-benzimidazole], the “stability according to the standard protocol for characterization of stability of a pharmaceutical active substance” value in data set [1] is “stable according to the standard protocol”.
`COc1ccc2[nH]c([S+]([O-])Cc3ncc(C)c(OC)c3C)nc2c1` (stereo not shown) [omeprazole form A, 5-methoxy-2-[[(4-methoxy-3,5-dimethyl-2-pyridinyl)methyl]sulfinyl]-1H-benzimidazole]: in data set [2], the hygroscopicity entry was “better”, the photostability entry is “better” and the thermodynamic stability entry is listed as “better”.
